# Data reported in patent publication US20160175249A1, “Liposomes Containing Oligopeptide Fragments of Myelin Basic Protein, a Pharmaceutical Composition and a Method for Treatment of Multiple Sclerosis” (LIPOXEN TECHNOLOGIES LIMITED, priority 2009, published 2016).
# B1: full-length MBP protein: myelin basic protein, 18.5 kDa, 171 amino acids (protein)
# chain: MASQKRPSQRHGSKYLATASTMDHARHGFLPRHRDTGILDSIGRFFGGDRGAPKRGSGKDSHHPARTAHYGSLPQKSHGRTQDENPVVHFFKNIVTPRTPPPSQGKGRGLSLSRFSWGAEGQRPGFGYGGRASDYKSAHKGFKGVDAQGTLSKIFKLGGRDSRSGSPMARR
# modifications: MBP splice isoforms
# notes: myelin basic protein, 18.5 kDa, 171 amino acids
# Tests used:
# [1] = tested on: experimental autoimmune encephalomyelitis (EAE) in DA rats; assay: EAE in DA rats treated with MBP peptides in mannosylated SUV liposomes (Example 10); format: in vivo
# Experimental: All animal studies were carried out in animal facilities of Assaf Harofeh Medical Center (Zerifin, Israel) using standard approved practices for animal care. Induction of EAE was performed in 8-9 weeks Dark Agouti (DA) female rats. Briefly, rats were injected intradermally at the base of the tail with a total volume of 200 μl of inoculum, containing […] of MBP(63-81) (ANASPEC), in saline mixed (1:1) with CFA, (incomplete Freund's adjuvant (IFA), Sigma), and 1 mg MT (strain H37 RA; Difco Laboratories, Detroit, Mich.). Animals developing symptoms of MS were included to the study. Rats were treated with different liposomes formulations (Table 3), copaxone, or placebo (vehicle) under similar conditions for 6 days. All formulations were administrated by one subcutaneous injection per day. Animals were followed up till day 28th post EAE induction. Clinical signs score was performed daily during all study periods. Score gradation was the following: 0—Normal 1—tail weakness, 2—hind leg weakness or paralysis, 3—hind leg paralysis, dragging hind limbs, 4—complete paralysis, unable to move, 5—death.
# Liposomes were assembled from a mixture of egg phosphatidylcholine (PC) and one molar percent mannosylated DOG (ManDOG) (Durova OM, supra). Assembly of SUV liposomes was performed as illustrated in FIG. 3: (i) formation of irregular lipid layers during evaporation of organic solvent, followed by re-hydration leading to the multi-layer multilamellar vesicle (MLV) liposomes formation; (ii) high-pressure homogenization resulting in formation of empty SUV; (iii) freeze drying of SUV liposomes with peptides—at this stage peptides are located between collapsed SUV liposomes; and (iv) encapsulation of peptides during second re-hydration into the SUV liposomes with an average diameter of approximately 60-100 nm, containing 1.0% mannose residues on their surface. Four formulations were used for this study: each B cell epitope MBP peptide (MBP1, MBP2, and MBP3) individually and a 1:1:1 mixture (by mass) of all three peptides.
# Small unilamellar vesicles (SUV) were prepared from egg phosphatidylcholine (PC) and mannosylated DOG (Espuelas S. et al., Synthesis of an amphiphilic tetraantennary mannosyl conjugate and incorporation into liposome carriers, 2003 Bioorg Med Chem Lett., August 4; 13(15):2557-60, the contents of which are hereby incorporated by reference in their entirety for all purposes) (1:100 molar ratio) by high pressure homogenization (Durova OM, supra). Briefly, lipid mixture (100 mg/ml) in CHCl3 was dried under vacuum, further re-suspended in Milli-Q water to a final lipid concentration 50 mg/ml, followed by high-pressure homogenization (20,000 psi). Resulting SUV were mixed with peptides (lipid to peptide ratio 330:1) together with excess sugar (lactose to lipid ratio 3:1) with subsequent freeze-drying. Following rehydration under controlled conditions, the resulting SUV liposomes were washed by centrifugation to remove non-incorporated materials. The washed pellets were re-suspended in PBS to the required dose volume. Peptide incorporation was estimated on the basis of reversed-phase HPLC using linear gradient of acetonitrile applied on C18 column. The z-average diameter and zeta potential of liposomes were measured on a Brookhaven ZetaPlus zetasizer at 25° C. by diluting […] of the dispersion to the required volume with 1 mM PBS or appropriate media.
# To test the therapeutic potential of the four formulations, DA rates presenting with induced EAE were subcutaneously injected with one of the four mannosylated liposomal formulations, copaxone (positive control), free (un-encapsulated) MBPI peptide (negative control), and empty mannosylated liposomes (vehicle control; Table 3).
# Treatment of each rat was initiated at the first sign of EAE clinical manifestation. […]
# EAE-induced DA rats = assay: EAE-induced DA rat model, paralysis score and mortality (DA-EAE-28-01, Example 12); format: in vivo; conditions: daily s.c. injection, 6 total
# Experimental: Each of the seven formulations being evaluated was provided as a lyophilized powder and stored at 4° C. Rehydration of each daily group dose was done with water for injection according to Table 6. MBP peptide formulations were re-suspended in water for injection (Cure Medical) and copaxone (Teva LTD) was diluted with Saline to a final concentration of 150 μg/mL. Each subject animal was administered the test formulation for 6 consecutive days by subcutaneous injection.
# 9 week old Dark Agouti (DA) female rats (Harlan Laboratories, Inc.), weighing between 125 and 145 grams were used as the test subjects. The health status of the animals used in this study was examined on arrival. Only animals in good health were acclimatized to laboratory conditions and were used in the study. Animals were provided Protein Rodent Diet (Teklad) ad libitum and free access to drinking water. Animals were housed in a controlled environment at between 20° C. and 24° C. with a relative humidity of 30-70% and a 12 hr light/12 hr dark cycle. Animals were randomly assigned to their respective test group. This study was performed following the review by the Committee for Ethical Conduct in the Care and Use of Laboratory Animals of the Assaf Harofeh medical center, Beer Yaakov, Ethical Committee number: 68/2009.
# For induction of EAE, rats were intradermally injected at the base of the tail with a total volume of 200 μl of inoculum containing 50 μg of MBP(63-81) (ANASPEC), in saline mixed (1:1) with CFA, (IFA, Sigma) and 1 mg Mt (strain H37 RA; Difco Laboratories, Detroit, Mich.).
# The rats were evaluated up daily starting 24 hours after immunization. […]
# 7-10 days post EAE induction, 54 animals were divided to 9 groups (6 rats in each), and blood was collected from 2 rats of each group before the initiation of the treatment. […] The animals were maintained and evaluated until day 28th post EAE-induction. […]
# Animals were observed individually and clinical signs were recorded once daily during all study periods. […] The body weight of each animals was determined daily during all study periods. […]
# [2] = biological target: polyclonal serum anti-MBP antibodies isolated from immunized DA rats; assay: Surface plasmon resonance of autoAb binding to biotinylated MBP peptides and MBP; conditions: SPR, BiaCore T-200, antibodies 50 μg/ml, immobilized peptide or MBP; for Kd: read-out: effective dissociation constant
# Experimental: To quantify autoAb recognition of the identified MBP epitopes, and to confirm their sequence in vitro, the affinity of polyclonal serum anti-MBP antibodies isolated from immunized DA rats for biotinylated MBP peptides was determined by surface plasmon resonance (FIG. 2B). The effective dissociation constant of the full-length MBP protein (1.5×10^−8) was determined to be nanomolar, as were the dissociation constants for MBP encephalitogenic (9.6×10^−9) and C-terminal (8.4×10^−9) fragments, verifying their identity as major B cell epitopes.
# All surface plasmon resonance measurements were performed on BiaCore T-200 apparatus (GE Healthcare, US). Biotinylated MBP peptides (50 μg/ml) (listed on FIG. 2) and MBP were immobilized on SA and CM-5 chips respectively. All procedures were performed according manufacture's recommendations. Flow rate of HBS-EP buffer was kept as 10 μl/min during all measurements. Antibodies (50 μg/ml) were tested on both chips with standard association/dissociation time 300/300 s. Dissociation constants were calculated using BiaCore T-200 Evaluation Software 1.0.
molecule,measurement,setting,value
"GGDRGAPKRGSGKDSHH (MBP peptide) [MBP1, myelin basic protein fragment MBP(46-62), free un-encapsulated peptide]",mean disease score course (FIG. 4),[1]; 6 daily s.c. injections from first clinical sign,did not provide any beneficial effects
same,Mortality,"[1]; one s.c. injection per day, 6 injections, deaths/N",1/15
same,Median Cumulative Disease Score,"[1]; one s.c. injection per day, 6 injections, doses per Table 3",19.5
same,Median Maximal Disease Score (IQR),"[1]; one s.c. injection per day, 6 injections, doses per Table 3, score 0-5",3 (0.5)^2
same,Mortality Rate,"EAE-induced DA rats; 54 EAE induced DA rats, peptide dose 50 μg (mixtures 150 μg), deaths/N",1/6
same,"efficacy, overall disease score",EAE-induced DA rats; comparison between groups,comparable
IFKLGGRDSRSGSPMARR [C-terminal fragment],Kd,[2],8.4 nM
MDHARHGFLPRH [biotinylated MBP fragment],effective dissociation constant,[2],not detectable
QDENPVVHFFKNIV [MBP encephalitogenic fragment],Kd,[2],9.6 nM
B1,Kd,[2],15 nM
